The target in the test is T1, human 11βHSD1 (Homo sapiens, UniProt P28845).
T1 construct: stably transfected with a construct containing full-length human 11βHSD1 enzyme (in pCMVHyg); expressed in transfected cells
Nature of the test: HeLa GRE4-βGal/11βHSD1 cell reporter assay (cortisone to cortisol conversion, β-galactosidase readout). Format: cell-based. Particulars: HeLa GRE4-βGal/11βHSD1 cells, cortisone 1 μM, overnight incubation, absorbance at 570 nm. An excerpt: HeLa cells (human cervical carcinoma derived cells) were stably transfected with a construct containing four copies of the glucocorticoid response element (GRE) linked to a beta-galactosidase reporter gene (3 kb lac Z gene derived from pSV-B-galactosidase). These cells were then further stably transfected with a construct containing full-length human 11βHSD1 enzyme (in pCMVHyg) to create GRE4-βGal/11βHSD1 cells. The principal of the assay is as follows. Cortisone is freely taken up by the cells and is converted to cortisol by 11βHSD1 oxo-reductase activity and cortisol (but not cortisone) binds to and activates the glucocorticoid receptor. Activated glucocorticoid receptor then binds to the GRE and initiates transcription and translation of β-galactosidase. Enzyme activity can then be assayed with high sensitivity by colourimetric assay.
Cells were routinely cultured in DMEM (Invitrogen, Paisley, Renfrewshire, UK) containing 10% foetal calf serum (LabTech), 1% glutamine (Invitrogen), 1% penicillin & streptomycin (Invitrogen), 0.5 mg/ml G418 (Invitrogen) & 0.5 mg/ml hygromycin (Boehringer). Assay media was phenol red free-DMEM containing 1% glutamine, 1% penicillin & streptomycin.
Compounds (1 mM) to be tested were dissolved in dimethyl sulphoxide (DMSO) and serially diluted into assay media containing […]. […]
A cocktail (25 μl) consisting of 10× Z-buffer (600 mM Na2HPO4, 400 mM NaH2PO4.2H2O, 100 mM KCl, 10 mM MgSO4.7H2O, 500 mM β-mercaptoethanol, pH 7.0), SDS (0.2%), chlorophenol red-β-D-galactopyranoside (5 mM, Roche Diagnostics) was added per well and plates incubated at 37° C. for 3-4 hours. β-Galactosidase activity was indicated by a yellow to red colour change (absorbance at 570 nm) measured using a Tecan Spectrafluor Ultra.
The calculation of median inhibitory concentration (IC50) values for the inhibitors was performed using Origin 6.0 (Microcal Software, Northampton Mass. USA). Dose response curves for each inhibitor were plotted as OD units at each inhibitor concentration with relation to a maximum signal (cortisone, no compound) and IC50 values calculated. […]
(A reporter such as luciferase makes a cellular process visible.)

T1 sequence (P28845 whole entry): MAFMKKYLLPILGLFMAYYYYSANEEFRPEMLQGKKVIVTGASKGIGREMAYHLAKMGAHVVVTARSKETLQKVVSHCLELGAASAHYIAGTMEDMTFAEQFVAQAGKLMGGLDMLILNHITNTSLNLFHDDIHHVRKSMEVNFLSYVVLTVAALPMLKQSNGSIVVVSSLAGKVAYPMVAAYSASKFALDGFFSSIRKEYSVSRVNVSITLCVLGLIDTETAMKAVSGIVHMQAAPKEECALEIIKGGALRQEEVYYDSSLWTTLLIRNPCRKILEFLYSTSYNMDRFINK

`O=C(c1ccc(F)cc1)C1CCN(C(=O)c2ccc(Cl)cc2)C1` (stereo not drawn) [Example 5]: 75 nM corresponded to half-maximal inhibition (IC50).
`O=C(c1ccc(F)cc1)C1CCN(S(=O)(=O)c2ccc(F)cc2)C1` (stereo not drawn) [Example 18]: the IC50 – broadly, the concentration at which inhibition is half-maximal – turned out to be 447 nM.
In turn, `O=C(c1ccc(F)cc1)C1CCN(C(=O)c2ccccc2Cl)C1` (stereo not drawn) [Example 7] came in with an IC50 of 70 nM.
